Experimental findings from ChEMBL document CHEMBL3860026, “Depsidones from Lichens as Natural Product Inhibitors of M-Phase Phosphoprotein 1, a Human Kinesin Required for Cytokinesis” (J Nat Prod, 2016) are described below.

In brackets after ≈: the same amount, converted by molar mass. Activity calls are given as the source filed them. No cut-off for these calls is given here.

Series [1] can be described thus: Solubility of the compound in phosphate buffered saline at pH 2 after 2 hrs by turbidimetric method. In kind it is physicochemical.
Series [2] in a line: Cytotoxicity against human K562 cells assessed as growth inhibition after 72 hrs by Alamar Blue assay. In kind it is functional, cell-based. The conditions noted are these: K562, 72 h. On the technique in general: Alamar Blue is a resazurin reagent that responds to reducing activity.
Series [3] concerns the target T1, Kinesin-like protein KIF20B (Homo sapiens, UniProt Q96Q89). The series is described as follows: Inhibition of basal ATPase activity of N-terminal His6-tagged/SUMO-fused human MPP1 motor domain (2 to 477 residues) expressed in Escherichia coli BL21 CodonPlus by pyruvate kinase/lactate dehydrogenase-linked assay.
The nature of series [4]: Cytotoxicity against human J82 cells assessed as growth inhibition after 72 hrs by Alamar Blue assay. The conditions noted are these: J82, 72 h. In kind it is functional, cell-based.
The nature of series [5]: Half life in human liver microsomes at 3 uM by LC-MS/MS method. The series is classed as ADME.
Series [6] is described as follows: Solubility of the compound in phosphate buffered saline at pH 7.4 after 2 hrs by turbidimetric method. In kind it is physicochemical.
The nature of series [7]: Solubility of the compound in phosphate buffered saline at pH 6 after 2 hrs by turbidimetric method. In kind it is physicochemical.
Series [8] in a line: Cytotoxicity against human HCT116 cells assessed as growth inhibition after 72 hrs by Alamar Blue assay. The conditions noted are these: HCT-116, 72 h. In kind it is functional, cell-based.
Series [9] addresses T1, Kinesin-like protein KIF20B. In words: Inhibition of microtubule-stimulated ATPase activity of N-terminal His6-tagged/SUMO-fused human MPP1 motor domain (57 to 491 residues) expressed in Escherichia coli BL21 CodonPlus by pyruvate kinase/lactate dehydrogenase-linked assay.
The nature of series [10]: Drug metabolism in human liver microsomes assessed as 3,8-dihydroxy-6-(5-hydroxypentyl)-1-pentanoyl-11H-dibenzo[b,e][1,4]dioxepin-11-one formation at 3 uM in presence of NADPH after 5 to 45 mins by LC-MS/MS method. The series is classed as ADME.
The nature of series [11]: Passive permeability of the compound assessed as compound recovery at 10 uM after 5 hrs by PAMPA. The series is classed as ADME. Particulars: read-out: Drug recovery.
Series [12] in a line: Intrinsic clearance in human liver microsomes assessed per mg of protein at 3 uM after 5 to 60 mins by LC-MS/MS method. Particulars: read-out: CLH. In kind it is ADME. For orientation: Liver microsomes are a subcellular fraction often used to study metabolism.
Series [13] can be described thus: Half life in mouse liver microsomes at 3 uM by LC-MS/MS method. In kind it is ADME.
Series [14] can be described thus: Drug metabolism in human liver microsomes assessed as 2-(2,4-dihydroxy-6-pentylphenoxy)-4-hydroxy-6-pentanoylbenzoic acid formation at 3 uM in presence of NADPH after 5 to 45 mins by LC-MS/MS method. In kind it is ADME.
A short description of series [15]: Apparent passive permeability of the compound at 10 uM after 5 hrs by PAMPA. In kind it is ADME. The conditions noted are these: PAMPA.
Series [16] can be described thus: Intrinsic clearance in mouse liver microsomes assessed per mg of protein at 3 uM after 5 to 60 mins by LC-MS/MS method. The series is classed as ADME. Particulars: read-out: CLH.
For series [17], the target named is T1, Kinesin-like protein KIF20B. The series is described as follows: Inhibition of basal ATPase activity of N-terminal His6-tagged/SUMO-fused human MPP1 motor domain (2 to 477 residues) expressed in Escherichia coli BL21 CodonPlus in presence of 0.1% Tween-20 by pyruvate kinase/lactate dehydrogenase-linked assay.
A short description of series [18]: Cytotoxicity against human BxPC3 cells assessed as growth inhibition after 72 hrs by Alamar Blue assay. In kind it is functional, cell-based. The conditions noted are these: BXPC-3, 72 h.
Series [19] is described as follows: n-octanol-buffer distribution co-efficient, log D of the compound at pH 7.4 by shake flask method. In kind it is physicochemical.
In series [20] the target is T1, Kinesin-like protein KIF20B. In words: Inhibition of basal ATPase activity of N-terminal His6-tagged/SUMO-fused human MPP1 motor domain (57 to 491 residues) expressed in Escherichia coli BL21 CodonPlus in presence of 0.1% Tween-20 by pyruvate kinase/lactate dehydrogenase-linked assay.
Series [21] shares this target. The series is described as follows: Inhibition of microtubule-stimulated ATPase activity of N-terminal His6-tagged/SUMO-fused human MPP1 motor domain (2 to 477 residues) expressed in Escherichia coli BL21 CodonPlus by pyruvate kinase/lactate dehydrogenase-linked assay.
Series [22] in a line: Drug metabolism in human liver microsomes assessed as methyl 2,4-dihydroxy-6-pentanoylbenzoate formation at 3 uM in presence of NADPH after 5 to 45 mins by LC-MS/MS method. The series is classed as ADME.
Series [23] can be described thus: Cytotoxicity against human UM-UC-3 cells assessed as growth inhibition after 72 hrs by Alamar Blue assay. In kind it is functional, cell-based. Particulars: UMUC3, 72 h.
Series [24] has as its target T1, Kinesin-like protein KIF20B. In words: Inhibition of basal ATPase activity of N-terminal His6-tagged/SUMO-fused human MPP1 motor domain (57 to 491 residues) expressed in Escherichia coli BL21 CodonPlus by pyruvate kinase/lactate dehydrogenase-linked assay.
Series [25] can be described thus: Efflux ratio of apparent permeability across basolateral to apical over apical to basolateral side in human Caco2 cells at 10 uM after 2 hrs by LC-MS/MS method. The conditions noted are these: Caco-2. The series is classed as ADME, cell-based. (In general: Passage across Caco-2 layers is used to estimate intestinal permeability.)
A short description of series [26]: Drug level in human liver microsomes treated with norlobaridone at 3 uM in presence of NADPH after 5 to 45 mins by LC-MS/MS method. The series is classed as ADME.

T1 sequence (Q96Q89 whole entry, the tested form may be a part): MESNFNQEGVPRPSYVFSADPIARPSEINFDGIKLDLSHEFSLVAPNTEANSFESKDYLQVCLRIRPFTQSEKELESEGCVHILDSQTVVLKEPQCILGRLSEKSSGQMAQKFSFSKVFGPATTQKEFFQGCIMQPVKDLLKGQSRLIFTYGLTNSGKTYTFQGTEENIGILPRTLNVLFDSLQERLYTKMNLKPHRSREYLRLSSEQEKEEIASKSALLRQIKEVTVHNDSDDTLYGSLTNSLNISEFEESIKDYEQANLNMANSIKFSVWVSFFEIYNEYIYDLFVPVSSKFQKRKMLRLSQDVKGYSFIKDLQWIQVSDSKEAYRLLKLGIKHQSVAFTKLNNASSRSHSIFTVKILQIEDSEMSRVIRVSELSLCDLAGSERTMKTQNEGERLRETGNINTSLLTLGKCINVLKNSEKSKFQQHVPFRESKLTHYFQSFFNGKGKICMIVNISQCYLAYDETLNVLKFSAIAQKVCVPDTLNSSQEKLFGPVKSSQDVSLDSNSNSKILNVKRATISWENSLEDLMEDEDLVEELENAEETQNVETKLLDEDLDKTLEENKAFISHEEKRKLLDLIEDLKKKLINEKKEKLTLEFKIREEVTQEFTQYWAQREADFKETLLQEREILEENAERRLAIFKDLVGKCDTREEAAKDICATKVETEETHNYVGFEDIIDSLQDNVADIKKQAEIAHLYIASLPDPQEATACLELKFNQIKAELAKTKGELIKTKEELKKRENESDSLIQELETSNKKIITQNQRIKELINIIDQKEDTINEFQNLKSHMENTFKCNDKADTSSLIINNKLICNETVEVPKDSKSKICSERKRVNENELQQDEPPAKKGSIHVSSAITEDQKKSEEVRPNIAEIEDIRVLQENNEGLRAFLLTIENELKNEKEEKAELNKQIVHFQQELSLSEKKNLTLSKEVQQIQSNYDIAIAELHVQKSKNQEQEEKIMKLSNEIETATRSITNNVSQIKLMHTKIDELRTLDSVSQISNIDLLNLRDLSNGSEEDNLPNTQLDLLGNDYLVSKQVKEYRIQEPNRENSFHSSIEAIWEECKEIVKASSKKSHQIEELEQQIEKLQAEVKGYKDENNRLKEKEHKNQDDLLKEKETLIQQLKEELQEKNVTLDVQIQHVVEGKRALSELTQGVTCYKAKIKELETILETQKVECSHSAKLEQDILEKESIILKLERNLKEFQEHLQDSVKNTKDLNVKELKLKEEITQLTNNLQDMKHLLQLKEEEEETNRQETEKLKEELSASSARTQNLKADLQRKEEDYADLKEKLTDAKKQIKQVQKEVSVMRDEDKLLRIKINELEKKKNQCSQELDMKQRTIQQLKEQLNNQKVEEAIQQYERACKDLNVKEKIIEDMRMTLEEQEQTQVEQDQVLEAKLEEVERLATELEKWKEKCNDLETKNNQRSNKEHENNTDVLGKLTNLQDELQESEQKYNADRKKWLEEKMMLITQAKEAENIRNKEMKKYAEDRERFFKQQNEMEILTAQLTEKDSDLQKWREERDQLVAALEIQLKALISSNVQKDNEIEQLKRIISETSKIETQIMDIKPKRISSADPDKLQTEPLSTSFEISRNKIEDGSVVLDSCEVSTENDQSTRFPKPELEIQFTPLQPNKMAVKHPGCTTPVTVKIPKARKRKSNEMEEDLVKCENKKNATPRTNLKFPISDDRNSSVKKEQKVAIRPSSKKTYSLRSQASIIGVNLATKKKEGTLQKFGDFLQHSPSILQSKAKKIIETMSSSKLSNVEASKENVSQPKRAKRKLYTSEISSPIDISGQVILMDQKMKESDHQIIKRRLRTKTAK

A word on the kinetic solubility: it is the concentration staying in solution when a stock, usually in DMSO, is diluted into the medium. Broadly, the EC50 is the midpoint of the concentration-response curve. Broadly, the IC50 is the concentration needed to halve the response being measured. For orientation: half-life means the time in which the quantity being followed falls by half. Broadly, the Papp is the rate of passage across a membrane or cell layer, normalised by area and donor concentration. By logD is commonly meant the decadic logarithm of the distribution of all forms, ionised or not, between an organic phase and buffer at a given pH. Lower therefore signals a more hydrophilic compound. In general, efflux ratio refers to the permeability from basolateral to apical divided by that in the opposite direction, in the common usage. As for `CCCCCc1cc(O)cc2c1Oc1cc(O)cc(C(=O)CCCC)c1C(=O)O2`, the kinetic solubility at 2 h in [1] was found to be 6.5 µM (≈ 2.59 µg/mL); in series [6], 37.5 µM (≈ 14.9 µg/mL); in series [7], 3.75 µM (≈ 1.49 µg/mL). Besides, the EC50 in series [2] is 43.7 µM; in series [4], 48.3 µM; in series [8], 42.9 µM; in [18], 33.1 µM; in [23], 30.5 µM. Further, the IC50 is 10.8 µM in [3], 24.4 µM in [9], 7.6 µM in [21] and 18.7 µM in series [24]. In addition, the Imax stood at 80% in series [3], 90% in [9], 90% in series [21] and 75% in series [24]. The half-life at 3 µM worked out at 3.5 min in series [5] and 3.1 min in series [13]. The Drug metabolism entry in series [10], in [14] and in series [22] was “Metabolite_Detected” throughout. Besides, the recovery at 5 h, 10 µM in series [11] is 95.1%. The microsomal CLint at 3 µM in series [12] turned out to be 393 µL/min/mg; in [16] it was 452 µL/min/mg. For the same compound, the Papp at 5 h, 10 µM in series [15] is 32.4 ×10⁻⁶ cm/s. In addition, the inhibition entry in series [17] and in series [20] was “Active” each time. Further, in series [19], the logD amounted to 3.5. For the same compound, in [25], the efflux ratio at 2 h, 10 µM was 0.51.
As for `CCCCC(=O)c1cc(O)cc(O)c1C(=O)OC`, the Drug metabolism result in series [26] was “Metabolite_Detected”.
Same read-out and setting: then `CCCCC(=O)c1cc(O)cc2c1C(=O)Oc1cc(O)cc(CCCCCO)c1O2`, with “Metabolite_Detected”; and `CCCCCc1cc(O)cc(O)c1Oc1cc(O)cc(C(=O)CCCC)c1C(=O)O`, with “Metabolite_Detected”.
Regarding `CCCCCc1c2c(cc(O)c1C(=O)O)OC(=O)c1c(cc(OC)cc1C(=O)CCCC)O2` [LOBARIC ACID], the EC50 turned out to be 1.4 µM in series [2]; 3.6 µM in series [4]; 0.8 µM in [8]; 1.6 µM in [18]; 3.7 µM in series [23].
In the case of `Cc1cc(O)cc2c1C(=O)Oc1cc3c(c(O)c1O2)C(=O)OC3` [VARIOLARIC ACID], the EC50 in series [2] was above 100 µM; in series [4], above 50 µM; in series [8], above 100 µM; in series [23], above 100 µM.
